# Entries after “also recorded” stand apart in the source; their conditions may differ.
# What was measured:
# [1] = system: mitochondrial reactive oxygen species (mtROS); assay: MitoSox assay of mitochondrial ROS in primary human RPE cells with Alu expressing plasmid; format: cell-based; conditions: pAluA vs pUC19, after 15 hours, FIG. 15, 54
# Method: After 15 hours cells were co-stained for mtROS (red) and for cell count, nuclei (blue; Hoechst DNA stain).
# In FIG. 54, mitochondrial reactive oxygen species (ROS) were visualized with MitoSox (Red) and cell nuclei with Hoechst (Blue).
# HeLa cells = assay: MTS proliferation assay of HeLa cells treated with Alu RNA expression plasmid (pAluA); format: cell-based, human; conditions: pAluA vs pUC19, d4T co-administration, FIG. 2
# [2] = system: extracellular potassium levels; assay: Extracellular potassium levels after Alu RNA transfection of primary human RPE cells (pyruvate kinase assay); format: cell-based; conditions: primary human RPE cells treated with Alu RNA for 6 hours; FIG. 18
# Method: Potassium levels were determined in cell culture supernatants spectrophotometrically using a potassium-dependent pyruvate kinase assay.
# For FIG. 18, potassium levels were determined in cell culture supernatants spectrophotometrically using a potassium-dependent pyruvate kinase assay.
# IRAK4 = assay: Western blot of IRAK4 phosphorylation in primary mouse RPE cells transfected with Alu RNA; format: cell-based; conditions: FIG. 44
# Caspase-1 = assay: Western blot of Caspase-1 activation in primary mouse RPE cells transfected with Alu RNA; format: cell-based; conditions: FIG. 44
# neutrophil migration = assay: NLRP3- and P2X7-driven model of sterile inflammation (liver injury); format: in vivo
# Excerpt: To explore the potential therapeutic relevance of NRTIs beyond the Alu-induced model of geographic atrophy (GA), it was hypothesized that if NRTIs function as generic inflammasome inhibitors, then they might be broadly useful in other animal models of disease that are also driven by P2X7.
# [3] = system: GFP-expressing lentivirus; assay: Replication of a GFP-expressing lentivirus in HeLa cells; format: cell-based; conditions: HeLa cells; FIG. 22
# Excerpt: The present disclosure further provides the results of additional experiments in FIG. 21-FIG. 23.
smiles,measurement,setting,value
"Cc1cn([C@H]2C=C[C@@H](CO)O2)c(=O)[nH]c1=O [d4T, 2′3′ dideoxythymidine]",Mitochondrial ROS (mtROS) caused by Alu expression (MitoSox),[1],blocks mitochondrial ROS (mtROS) production; also recorded: reduces mitochondrial ROS caused by Alu expression; also recorded: prevents pAlu-induced mitochondrial ROS generation
same,Cell viability / cell death induced by Alu overexpression (MTS),HeLa cells,prevented cell death induced by Alu overexpression
same,Extracellular potassium levels after Alu RNA transfection,[2],reduces extracellular potassium levels
same,IRAK4 phosphorylation,IRAK4,blocks phosphorylation of IRAK4
same,Caspase 1 cleavage to its active 20 kDa form,Caspase-1,prevents Caspase 1 cleavage to its active 20 kDa form
same,Neutrophil migration to the focus of liver injury,neutrophil migration,reduced neutrophil migration to the focus of liver injury
same,Replication of a GFP-expressing lentivirus,[3],blocks replication of a GFP-expressing lentivirus
